Each structure is given as a SMILES string.

This experiment has as its target T1, SYK kinase (Homo sapiens, UniProt P43405).
T1 construct: purchased Invitrogen, Carlsbad
The experiment in a line: SYK assay (OMNIA Kinase Assay, Invitrogen). The format is biochemical. To be noted: apparent Ki calculated from the IC50 using the Cheng-Prusoff equation; 1 mM ATP, 10 μM Peptide Substrate; read-out: SYK Activities: Ki. Here is the method: In the assay OMNIA® KINASE ASSAY by Invitrogen Corporation (Carlsbad) the effect of invention of a compound on the phosphorylation is determined by measurement of fluorescence intensity of a chelation-enhanced fluorophore called SOX. Upon phosphorylation of the peptide by the kinase of interest, Mg2+ is chelated to form a bridge between the SOX moiety and the phosphate group that is transferred to the specific tyrosine on the peptide. The fluorescence intensity is directly proportional to the amount of peptide phosphorylation.
To the wells of an 384 well small volume plate (Greiner, Frickenhausen) are added (i) the compound under test in 5% DMSO/distilled water (2 μl), (ii) 16 μl of the master mix containing ATP, DTT, Kinase Reaction Buffer, Omina Peptide Substrate Tyr 7 resulting in a final concentration of 1 mM ATP, 0.2 mM DTT and 10 μM Peptide Substrate.
The Master Mix and the assay plate was incubated to reaction temperature before the measurement (30° C.). The reaction was started with addition of (iii) 2 μl 4 μg/ml SYK kinase (Invitrogen, Carlsbad). During measurement fluorescence intensitiy readings were collected using a TECAN M1000 at a wavelength of λex 360/λem 485 nm every 30 s for 30 minutes. The reaction velocity was plotted versus the inhibitor concentration to determine the IC50 using XLFit 5.0 (IDBS, Guildford) to fit to a sigmoidal dose response curve, and the apparent Ki values were calculated from the IC50 using the Cheng-Prusoff equation (Cheng, Y.; Prusoff, W. H. Biochem. Pharmacol. 22, 3099-3108, 1973).

Regarding `COc1ccc2nc(Nc3ccc(N4CCOCC4)cc3C)c3n[nH]cc3c2c1` [Example #191, (8-Methoxy-2H-pyrazolo[3,4-c]quinolin-4-yl)-(2-methyl-4-morpholin-4-yl-phenyl)-amine], the Ki is 100 to 1000 nM.

Turning to `N#Cc1ccc2nc(Nc3ccc4cn[nH]c4c3)c3n[nH]cc3c2c1` [Example #197, 4-(1H-Indazol-6-ylamino)-2H-pyrazolo[3,4-c]quinoline-8-carbonitrile], the Ki is below 10 nM.

For `COc1ccc(Nc2nc3ccccc3c3c(C(F)(F)F)[nH]nc23)cc1OC` [Example #210, (3,4-Dimethoxy-phenyl)-(1-trifluoromethyl-2H-pyrazolo[3,4-c]quinolin-4-yl)-amine], the Ki is 100 to 1000 nM.

Take `CN1CCN(c2ccc(Nc3nc4ccccc4c4c(C(F)(F)F)[nH]nc34)cc2)CC1` [Example #211, [4-(4-Methyl-piperazin-1-yl)-phenyl]-(1-trifluoromethyl-2H-pyrazolo[3,4-c]quinolin-4-yl)-amine]: the Ki was 100 to 1000 nM.

For the molecule `FC(F)(F)c1[nH]nc2c(Nc3ccc4cn[nH]c4c3)nc3ccccc3c12` [Example #212, (1H-Indazol-6-yl)-(1-trifluoromethyl-2H-pyrazolo[3,4-c]quinolin-4-yl)-amine], the Ki is 100 to 1000 nM.

As to `COc1ccc(Nc2nc3ccccc3c3c([N+](=O)[O-])[nH]nc23)cc1OC` [Example #213, (3,4-Dimethoxy-phenyl)-(1-nitro-2H-pyrazolo[3,4-c]quinolin-4-yl)-amine], the Ki is 100 to 1000 nM.

In the case of `CN1CCN(c2ccc(Nc3nc4ccccc4c4c([N+](=O)[O-])[nH]nc34)cc2)CC1` [Example #214, [4-(4-Methyl-piperazin-1-yl)-phenyl]-(1-nitro-2H-pyrazolo[3,4-c]quinolin-4-yl)-amine], the Ki is 100 to 1000 nM.

`N#Cc1ccc2nc(Nc3ccc(N4CCOCC4)cc3)c3n[nH]cc3c2c1` [Example #217, 4-(4-Morpholin-4-yl-phenylamino)-2H-pyrazolo[3,4-c]quinoline-8-carbonitrile]: the Ki is below 10 nM.

As to `COc1ccc(Nc2nc3snc(C)c3c3c[nH]nc23)cc1OC` [Example #218, (3,4-Dimethoxy-phenyl)-(1-methyl-7H-3-thia-2,4,6,7-tetraaza-as-indacen-5-yl)-amine], the Ki was 100 to 1000 nM.

Take `Cc1nsc2nc(Nc3ccc4cn[nH]c4c3)c3n[nH]cc3c12` [Example #219, (1H-Indazol-6-yl)-(1-methyl-7H-3-thia-2,4,6,7-tetraaza-as-indacen-5-yl)-amine]: the Ki was 10 to 100 nM.

On to `Cc1nsc2nc(Nc3ccc(N4CCN(C)CC4)cc3)c3n[nH]cc3c12` [Example #220, [4-(4-Methyl-piperazin-1-yl)-phenyl]-(1-methyl-7H-3-thia-2,4,6,7-tetraaza-as-indacen-5-yl)-amine], for which the Ki was 100 to 1000 nM.

For the molecule `COc1ccc(Nc2nc3cc(C#N)ccc3c3c(C)[nH]nc23)cc1OC` [Example #226, 4-(3,4-Dimethoxy-phenylamino)-1-methyl-2H-pyrazolo[3,4-c]quinoline-7-carbonitrile], the Ki was below 10 nM.

`Cc1[nH]nc2c(Nc3ccc4cn[nH]c4c3)nc3cc(C#N)ccc3c12` [Example #227, 4-(1H-Indazol-6-ylamino)-1-methyl-2H-pyrazolo[3,4-c]quinoline-7-carbonitrile]: the Ki was 100 to 1000 nM.

For `COc1ccc2nc(Nc3ccc(C(=O)N4CCCC4)cc3)c3n[nH]cc3c2c1` [Example #231, [4-(8-Methoxy-2H-pyrazolo[3,4-c]quinolin-4-ylamino)-phenyl]-pyrrolidin-1-yl-methanone], the Ki is 100 to 1000 nM.

As for `COc1cccc2c1nc(Nc1ccc3c(c1)OCO3)c1n[nH]cc12` [Example #249, Benzo[1,3]dioxol-5-yl-(6-methoxy-2H-pyrazolo[3,4-c]quinolin-4-yl)-amine], the Ki was 100 to 1000 nM.

In the case of `CCN1CCN(c2ccc(Nc3nc4cc(OC)ccc4c4c[nH]nc34)cc2)CC1` [Example #260, [4-(4-Ethyl-piperazin-1-yl)-phenyl]-(7-methoxy-2H-pyrazolo[3,4-c]quinolin-4-yl)-amine], the Ki is 10 to 100 nM.

Regarding `COc1ccc2c(c1)nc(Nc1ccc3c(c1)OCCO3)c1n[nH]cc12` [Example #265, (2,3-Dihydro-benzo[1,4]dioxin-6-yl)-(7-methoxy-2H-pyrazolo[3,4-c]quinolin-4-yl)-amine], the Ki was 10 to 100 nM.

In the case of `COc1ccc2c(c1)nc(Nc1ccc3c(c1)OCO3)c1n[nH]cc12` [Example #267, Benzo[1,3]dioxol-5-yl-(7-methoxy-2H-pyrazolo[3,4-c]quinolin-4-yl)-amine], the Ki is 10 to 100 nM.

For the molecule `COC(=O)c1scc2c1nc(Nc1ccc(OC)c(OC)c1)c1n[nH]cc12` [Example #275, 4-((3,4-dimethoxyphenyl)amino)-2H-pyrazolo[4,3-d]thieno[3,4-b]pyridine-6-carboxylic acid methyl ester], the Ki is 100 to 1000 nM.

Regarding `COc1ccc2nc(Nc3ccc(-c4ccc(C(=O)O)cc4)cc3)c3n[nH]cc3c2c1` [Example #288, 4′-((8-methoxy-2H-pyrazolo[3,4-c]quinolin-4-yl)amino)-[1,1′-biphenyl]-4-carboxylic acid], the Ki is 100 to 1000 nM.

As to `COc1ccc2nc(Nc3ccc(NC(=O)Nc4cccc(C)c4)cc3)c3n[nH]cc3c2c1` [Example #289, 1-(4-((8-methoxy-2H-pyrazolo[3,4-c]quinolin-4-yl)amino)phenyl)-3-(m-tolyl)urea], the Ki is 10 to 100 nM.

Regarding `COc1cc(OC)c2nc(Nc3ccc(NC(=O)Nc4cccc(C)c4)cc3)c3n[nH]cc3c2c1` [Example #297, 1-(4-((6,8-dimethoxy-2H-pyrazolo[3,4-c]quinolin-4-yl)amino)phenyl)-3-(m-tolyl)urea], the Ki is 100 to 1000 nM.

With `COc1cc2nc(Nc3ccc(NC(=O)Nc4cccc(C)c4)cc3)c3n[nH]cc3c2cc1OC` [Example #299, 1-(4-((7,8-dimethoxy-2H-pyrazolo[3,4-c]quinolin-4-yl)amino)phenyl)-3-(m-tolyl)urea], the Ki was 100 to 1000 nM.

For `COc1ccc2nc(Nc3cccc(S(F)(F)(F)(F)F)c3)c3n[nH]cc3c2c1` [Example #309, 8-methoxy-N-(3-(pentafluorosulfanyl)phenyl)-2H-pyrazolo[3,4-c]quinolin-4-amine], the Ki was 100 to 1000 nM.

In the case of `COc1ccc2nc(Nc3ccc(F)c(F)c3)c3n[nH]cc3c2c1` [Example #311, N-(3,4-difluorophenyl)-8-methoxy-2H-pyrazolo[3,4-c]quinolin-4-amine], the Ki is 10 to 100 nM.

In the case of `COc1ccc2nc(Nc3cc(F)cc(F)c3)c3n[nH]cc3c2c1` [Example #315, N-(3,5-difluorophenyl)-8-methoxy-2H-pyrazolo[3,4-c]quinolin-4-amine], the Ki is 100 to 1000 nM.

In the case of `COc1ccc2nc(Nc3ccc([N+](=O)[O-])cc3)c3n[nH]cc3c2c1` [Example #318, 8-methoxy-N-(4-nitrophenyl)-2H-pyrazolo[3,4-c]quinolin-4-amine], the Ki was below 10 nM.

For `COc1ccc2nc(Nc3cccc(OC)c3OC)c3n[nH]cc3c2c1` [Example #331, N-(2,3-dimethoxyphenyl)-8-methoxy-2H-pyrazolo[3,4-c]quinolin-4-amine], the Ki is 100 to 1000 nM.

Turning to `COc1ccc(Nc2nc3ccc(OC)cc3c3c[nH]nc23)c(OC)c1` [Example #332, N-(2,4-dimethoxyphenyl)-8-methoxy-2H-pyrazolo[3,4-c]quinolin-4-amine], the Ki is 100 to 1000 nM.

Take `O=C1COc2ccc(Nc3nc4cc(F)ccc4c4cn[nH]c34)cc2N1` [Example #334, 6-((7-fluoro-3H-pyrazolo[3,4-c]quinolin-4-yl)amino)-2H-benzo[b][1,4]oxazin-3(4H)-one]: the Ki was 10 to 100 nM.

As to `Fc1ccc2c(c1)nc(Nc1ccc(N3CCOCC3)cc1)c1[nH]ncc12` [Example #335, 7-fluoro-N-(4-morpholinophenyl)-3H-pyrazolo[3,4-c]quinolin-4-amine], the Ki is 10 to 100 nM.

In the case of `COc1ccc(Nc2nc3cc(F)ccc3c3cn[nH]c23)cc1OC` [Example #336, N-(3,4-dimethoxyphenyl)-7-fluoro-3H-pyrazolo[3,4-c]quinolin-4-amine], the Ki was 10 to 100 nM.

With `O=C(c1ccc(Nc2nc3cc(F)ccc3c3cn[nH]c23)cc1)N1CCCC1` [Example #342, (4-((7-fluoro-3H-pyrazolo[3,4-c]quinolin-4-yl)amino)phenyl)(pyrrolidin-1-yl)methanone], the Ki was 100 to 1000 nM.

Turning to `COc1ccc2nc(Nc3ccc(-n4nccn4)cc3)c3n[nH]cc3c2c1` [Example #345, N-(4-(2H-1,2,3-triazol-2-yl)phenyl)-8-methoxy-2H-pyrazolo[3,4-c]quinolin-4-amine], the Ki is 100 to 1000 nM.

As to `COc1ccc2nc(Nc3cccc(-n4nccn4)c3)c3n[nH]cc3c2c1` [Example #347, N-(3-(2H-1,2,3-triazol-2-yl)phenyl)-8-methoxy-2H-pyrazolo[3,4-c]quinolin-4-amine], the Ki was 100 to 1000 nM.

As to `COc1ccc2nc(Nc3ccc(NC(=O)c4ccc(F)cc4)cc3)c3n[nH]cc3c2c1` [Example #358, 4-fluoro-N-(4-((8-methoxy-2H-pyrazolo[3,4-c]quinolin-4-yl)amino)phenyl)benzamide], the Ki is below 10 nM.

Source of the values: US9499535B2, “Kinase inhibitors” (ORIGENIS GMBH, priority 2011, dated 2016).
